Assay [1] has as its system THP-1 monocyte adhesion to HUVEC. The assay is described as follows: Static adhesion assay, THP-1 monocytes on HUVEC. The format is cell-based, human. The following applies: HUVEC treated with inhibitor prior to TNFα stimulation. The method, then: HUVECs were seeded on gelatin-coated glass coverslips in 6-well plates and grown to confluence. On the day of the experiment, cells were washed 2× with 1× PBS and incubated for 30 minutes in basal EGM supplemented with 1% BSA in the presence or absence of pharmacological inhibitors. During this incubation period, human THP-1 monocytes were loaded with Calcein-AM (Invitrogen; 5 μg/mL) for 30 minutes at 37° C. Cells were then pelleted by brief centrifugation and excess calcein was removed by washing THP-1 cells 3 times in 1× PBS. Next, HUVECs were stimulated with TNFα (10 ng/mL) for 30 minutes. Following EC activation, calcein-loaded THP-1 monocytes were added to EC monolayers and incubated for 20 minutes at 37° C. to allow THP-1 to contact ECs. Monolayers were then washed 3× with 1× PBS and fixed in ice cold 4% PFA. Following fixation, coverslips were removed from the 6-well plates and mounted on glass microscope slides with Prolong Gold anti-fade mountant with DAPI (Life Technologies). Fluorescent micrographs were obtained at 10×magnification and the number of adherent THP-1 monocytes/ECs was quantified in 5 randomized regions/slide. Data are expressed as mean±SEM (n=3 independent experiments).

For a further assay, the system named is HSaVEC. The assay is described as follows: In vitro ATP release assay (luciferin:luciferase), HSaVEC. The format is cell-based, human. The conditions noted are these: for inhibition of TNFα-mediated ATP release: CBX, ^10panx1; for effect of inhibitor on TNFα-induced ATP release: antagonist 30 min, WP9QY 10 μM, BFA 5 μg/mL, RuR 20 μM, PP2/PP3 10 μM. The method, then:
(§1) In vitro Human arterial and venous ECs were seeded in 24-well plates pre-coated with 0.2% gelatin and grown to confluency. On the day of experiment, the media was removed from each well and cells were carefully washed twice with warm serum free basal EC medium supplemented with 1% BSA. Cells were then incubated in 300 μL of fresh basal EC medium supplemented with 1% BSA for 30 minutes at 37° C. to allow degradation of extracellular ATP released due to mechanical stimulation during washes. Endogenous ecto-nucleotidases were inhibited by incubating EC monolayers with 300 μM ARL 67156 (Tocris) for 30 minutes at 37° C. Cells were then stimulated with recombinant human TNFα (R&D Systems). For dose response experiments, ECs were incubated with 0.1, 1, 5, 10, 50, or 100 ng/mL recombinant TNFα for 30 minutes at 37° C. For time-course experiments, ECs were stimulated with 10 ng/mL recombinant TNFα for different time points up to 1 hour. In experiments where pharmacological inhibitors were employed, ECs were incubated with antagonists in parallel with ARL 67156 for 30 minutes. To inhibit TNFR1, ECs were incubated with the peptide antagonist of the receptor WP9QY (10 μM; Anaspec). […] Cx hemichannels were inhibited with lanthanum (La^3+; 100 μM; Sigma) and Panx1 channels were blocked with carbenoxolone (CBX; 50 μM; Sigma) and the inhibitory peptide ^10panx1 (200 μM; Genscript). […] The role of caspase activation was assessed by inhibition with the pan-caspase blocker Q-VD-OPh (100 μM; Sigma). Following stimulation with TNFα or vehicle, 150 μL of the cell supernatant was collected and immediately placed into pre-chilled 1.5 mL Eppendorf tubes on ice. All samples were centrifuged at 10,000×g for 5 minutes and 50 μL of each sample was transferred to a white, opaque 96-well plate. Using a FluoStar Omega luminometer, 50 μL of luciferin:luciferase reagent (ATP bioluminescence assay kit HSII; Roche) was injected into each well and luminescence was recorded following a 5s orbital mix. ATP concentration in each sample was calculated from a standard curve for all experiments. Data are presented as a % change in ATP release from baseline (i.e. unstimulated cells) and expressed as mean±SEM (n=5 independent experiments with triplicate measurements).

The next assay concerns HUVEC. The assay is described as follows: In vitro ATP release assay (luciferin:luciferase), HUVEC. The format is cell-based, human. The conditions noted are these: for reduction of TNFα-mediated ATP release: CBX 50 μM, ^10panx1 200 μM; for effect of inhibitor on TNFα-induced ATP release: antagonist 30 min, WP9QY 10 μM, La3+ 100 μM, BFA 5 μg/mL, RuR 20 μM, PP2/PP3 10 μM, Q-VD-OPh 100 μM. The protocol: as §1

Another assay has as its system Src Family Kinases (SFK). The assay is described as follows: Western blot of SFK activation (pY416SFK) in venous ECs. The format is cell-based, human. The conditions noted are these: HUVEC and HSaVEC; PP2/PP3 10 μM. The protocol: (§2) Following stimulation with TNFα (in vitro: 10 ng/mL; ex vivo: 50 ng/mL), confluent endothelial cell monolayers or isolated mesenteric venules were homogenized in ice cold Triton extraction buffer (50 mM Tris-HCL, 150 mM NaCl , 5 mM EDTA, 1% deoxycholate, 1% NP-40 and 1% Triton-X100 in phosphate buffered saline and pH adjusted to 7.4) containing protease and phosphatase inhibitors. Cell/Tissue lysates were incubated with rotation at 4° C. for 20 minutes to solubilize proteins, followed by centrifugation for 5 minutes at 13,000× g to pellet cell debris. Protein concentration was quantified using the BCA method. 15-20 μg of total protein was subjected to SDS gel electrophoresis using 4-12% Bis-Tris gels (Invitrogen) and transferred to nitrocellulose membranes for immunoblotting. Membranes were blocked for 1 hr at room temperature with LiCOR blocking solution, then incubated overnight at 4° C. with primary antibodies against pY416SFKs, (BD Biosciences; 1:1000) pY198Panx1 (Alpha Diagnostic Intl (ADI); 1:1000) and GAPDH (Sigma; 1:10,000) or an antibody against the intracellular loop of Panx1 (Panx1-IL) (ADI; 1:1000) (normalization controls). Membranes were then washed and incubated with LiCOR secondary antibodies (1:10,000) and visualized and quantitated using LiCOR Odyssey. To inhibit SFK activity, EC monolayers were incubated with the SFK inhibitor PP2 (Tocris; 10 μM). […] To show specificity for the phosphorylated form of SFKs and Panx1, cell lysates were incubated with alkaline phosphatase for 1 hour at 37° C. Western blot images have been cropped for presentation. Uncropped Western blots can be found in FIGS. 12-13. Data are expressed as mean±SEM (n=3 independent experiments).
On the technique in general: In western blotting, separated proteins are transferred to a membrane and probed.

The subject of a further assay is Panx1. The assay is described as follows: Western blot of Panx1 phosphorylation at Y198 in venous ECs. The format is cell-based, human. The protocol: as §2
The test system of assay [2] is isolated murine mesenteric venules. Description: Ex vivo vascular perfusion ATP release assay, mesenteric venules. The format is cell-based, mouse. The conditions noted are these: WP9QY 10 μM, PP2 10 μM. The method, then:
For isolated blood vessel experiments, 2nd order venules or arterioles were dissected from the mouse mesentery circulation and cannulated on glass micropipettes to access the vessel lumen. […] Vessels were then perfused with MOPS PSS containing 300 μM ARL 67156 +/− pharmacological inhibitors and incubated for an additional 20 minutes prior to perfusion with MOPS PSS containing recombinant murine TNFα (R&D Systems). Aliquots of the lumenal perfusate were collected every 5 minutes for a 25-minute period and the ATP concentration was quantified by bioluminescence as described above. Data are expressed as mean±SEM (n=4 independent experiments).

A further assay deals with C57B1/6J mice. The assay is described as follows: Intravital microscopy of cremaster muscle for leukocyte adhesion and emigration. The format is in vivo, mouse. The following applies: control C57B1/6J mice, tamoxifen 10 consecutive days. The method, then: Mice were prepared for intravital microscopy of the cremaster muscle as described previously^25. Briefly, mice were anesthetized with ketamine hydrochloride (150 mg/kg, IP) and xylazine (7.5 mg/kg, IP). The cremaster was isolated, laid over a viewing pedestal, superfused with bicarbonate-buffered saline. After 30 min equilibration, a venule with a wall shear rate (WSR) of ≥500/s, diameter between 20 μm and 40 μm, and the least number of adherent and emigrated leukocytes was chosen for further study. A 1 min baseline recording was made, after which superfusion was stopped, and 50 μl TNFα (1.7 ng/ml in 0.1% BSA) or vehicle control was added under a saran wrap cover every 30 min. 1 min recordings were made just prior to each addition, for 3 hrs. The TNFα was initially reconstituted in PBS at 3.4 ng/ml and 150 μl aliquots were frozen. An aliquot was mixed 1:1 with BBS containing 0.2% BSA at the time of the experiment. Leukocyte adhesion and emigration were determined by off-line analysis. Leukocytes were considered adherent if they stopped for at least 30 s (expressed as #/mm^2 vessel wall), and emigrated leukocytes were leukocytes identified in the interstitium (expressed as #cells/mm^2 tissue). Data are expressed as mean±SEM (n=6-7 independent animals/group).

A further assay deals with pannexin1 channel (Homo sapiens, UniProt Q96RD7). The following applies: cited from earlier work.
The next assay concerns the target T1, Panx1 channels in HUVEC (Homo sapiens, UniProt Q96RD7).
T1 construct: Primary human umbilical vein endothelial cells (HUVEC) were purchased from Cell Applications; PromoCell 200K-05; C-12231; host or cells: HUVEC, HSaVEC (primary human venous endothelial cells)
Description: YO-PRO-1 dye uptake assay. The format is cell-based. The following applies: ^10panx1 200 μM, TNFα 10 ng/mL 30 minutes. The method, then: HUVECs were cultured on poly-L-lysine coated coverslips and grown to confluence in EGM. Cells were washed three times with 1× PBS and incubated in fresh EGM for 30 minutes prior to stimulation. To stimulate YO-PRO-1 dye uptake, YO-PRO-1 (1 μM) was added to the media and EC monolayers were treated with TNFα at a range of concentrations (0.1 ng/mL-100 ng/mL) for 30 minutes. At the end of the stimulation, cells were washed 3× with 1× PBS and immediately fixed in 4% PFA. Coverslips were then mounted on microscope slides with DAPI ProlongGold mounting agent and visualized on an Olympus IX81 laser scanning confocal microscope. Dye uptake was quantified as the intensity of YO-PRO-1 fluorescence over time using ImageJ software. For time course analysis, YO-PRO-1 was added to the culture media at various time points after TNFα stimulation and incubated to the 30-minute time point. Data are expressed as mean±SEM (n=3 independent experiments).

Chain of pannexin1 channel (Q96RD7 whole entry): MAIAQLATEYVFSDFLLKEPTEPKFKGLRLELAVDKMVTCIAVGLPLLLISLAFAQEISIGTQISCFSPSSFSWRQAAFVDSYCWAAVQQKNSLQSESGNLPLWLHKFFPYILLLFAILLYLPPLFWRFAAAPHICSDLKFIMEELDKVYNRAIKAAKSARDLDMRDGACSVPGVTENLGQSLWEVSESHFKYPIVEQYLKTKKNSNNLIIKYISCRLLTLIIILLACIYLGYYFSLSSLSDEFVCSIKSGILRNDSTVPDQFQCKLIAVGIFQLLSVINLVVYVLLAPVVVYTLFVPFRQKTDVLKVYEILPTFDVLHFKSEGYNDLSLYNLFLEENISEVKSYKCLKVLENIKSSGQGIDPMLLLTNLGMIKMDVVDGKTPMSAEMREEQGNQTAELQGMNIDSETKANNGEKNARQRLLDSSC
T1 sequence (Q96RD7 whole entry): as above

`CC1(C)[C@@H](OC(=O)CCC(=O)O)CC[C@]2(C)[C@H]3C(=O)C=C4[C@@H]5C[C@@](C)(C(=O)O)CC[C@]5(C)CC[C@@]4(C)[C@]3(C)CC[C@@H]12` [CBX, carbenoxolone]: the “effect on TNFα-induced THP-1 monocyte adhesion” value in assay [1] is listed as “significantly reduced”. Also, the “inhibition of TNFα-mediated ATP release” value in the assay on HSaVEC (HSaVEC) was determined as 69.7%. Moreover, the “reduction of TNFα-mediated ATP release” value with HUVEC (HUVEC) amounted to 86.4%.
In the case of `CC(C)(C)n1nc(-c2ccc(Cl)cc2)c2c(N)ncnc21` [PP2], the “effect on TNFα-induced Y416 phosphorylation of SFK” value with Src Family Kinases (SFK) is “reduced Y416 phosphorylation to baseline levels”. Besides, the “effect on Panx1 Y198 phosphorylation induced by c-Src overexpression” value in the assay on Panx1 (HUVEC) is “blocked”. Also, the “effect on TNFα-induced Panx1 phosphorylation at Y198” value in the assay on Panx1 (HUVEC and HSaVECs, pretreatment with PP2) is reported as “blocked”. Moreover, the figures for the “effect of inhibitor on TNFα-induced ATP release” value (“effect of inhibitor” below) (in [2]; in the assay with HSaVEC (HSaVEC); in the assay on HUVEC (HUVEC)) were “blunting ATP release”, “significantly blunted” and “significantly blunted”, respectively.
On to `Nc1ncnc2c1cnn2-c1ccccc1` [PP3], for which the “effect on TNFα-induced Y416 phosphorylation of SFK” value in the assay with Src Family Kinases (SFK) is reported as “no effect”. In addition, the “effect of inhibitor” value in the assay on HSaVEC (HSaVEC) and with HUVEC (HUVEC) was “no significant effect” throughout.
For `CC(C)[C@H](NC(=O)c1ccc2ccccc2n1)C(=O)N[C@@H](CC(=O)O)C(=O)COc1c(F)cccc1F` [Q-VD-OPh], the “effect of inhibitor” value in the assay on HUVEC (HUVEC) is “lack of inhibition”.
On the same count and under the same terms, next, `[La]` [lanthanum]: “failed to reduce ATP release”.
As to `N.N.N.N.N.N.N.N.N.N.N.N.N.N.[Cl-].[Cl-].[Cl-].[Cl-].[Cl-].[Cl-].[O-2].[O-2].[Ru+3].[Ru+3].[Ru+4]` [ruthenium red], the “effect of inhibitor” value in the assay on HSaVEC (HSaVEC) and in the assay with HUVEC (HUVEC) was “ruled out the involvement” throughout.
With `CC/C(=C(\c1ccccc1)c1ccc(OCCN(C)C)cc1)c1ccccc1` [tamoxifen], in the assay on C57B1/6J mice, the “effect on TNFα-induced leukocyte adhesion” value is listed as “no effect” and the “effect on TNFα-induced leukocyte emigration” value is “no effect”.
As to Apyrase, in [1], the “effect on TNFα-induced THP-1 monocyte adhesion” value was “significantly reduced”.
As for “IL-1β: recombinant human pro-inflammatory cytokine”, the “ATP release on cytokine stimulation” value in the assay on HSaVEC (HSaVEC monolayers) and in the assay with HUVEC (HUVEC monolayers) was “failed to promote ATP release” in each case. For the same compound, the “degree of ATP release on co-administration with TNFα vs TNFα alone” value was “did not significantly alter” in the assay with HSaVEC (HSaVEC, TNFα 10 ng/mL plus increasing IL-1β) and “did not significantly alter” in the assay with HUVEC (HUVEC, TNFα 10 ng/mL plus increasing IL-1β).
On to “KYPIVEQYLKYGRKKQRRR (hybrid of human and HIV tat seq.) [IL2/PanX peptide]”, for which, in assay [1], the “effect on TNFα-induced THP-1 monocyte adhesion” value is reported as “ability to block leukocyte adhesion”. Besides, in the assay with pannexin1 channel, the “inhibition of pannexin1 channel (previously shown / known)” value was “potent and specific inhibitor”.
As to WRQAAFVDSY [^10panx1], in assay [1], the “effect on TNFα-induced THP-1 monocyte adhesion” value is given as “significantly reduced”. Further, in the assay with pannexin1 channel, the “inhibition of pannexin1 channel (previously shown / known)” value was “block pannexin-1 gap junctions”. In addition, in the assay with Panx1 channels in HUVEC, the “effect on TNFα-induced YO-PRO-1 dye uptake” value was “significantly attenuated”. The “inhibition of TNFα-mediated ATP release” value in the assay on HSaVEC (HSaVEC) came out at 75.2%. For the same compound, the “reduction of TNFα-mediated ATP release” value with HUVEC (HUVEC) was determined as 70.9%.

(Values after patent US11331375B2, “Compositions and methods for regulating leukocyte adhesion” (University of Virginia Patent Foundation, priority 2015, dated 2022).)
